Experimental data: patent US9849131B2 (AUTIFONY THERAPEUTICS LIMITED, priority 2009, dated 2017)

What was measured:
[1] = system: parvalbumin-positive interneurons in the somatosensory cortex; assay: Firing of parvalbumin-positive interneurons in somatosensory cortex slices, in vitro (Example 90); assay type: cell-based, mouse; settings: vs TEA alone, p<0.05
common marmosets = assay: Behaviour of the common marmoset on threatening human approach (Example 94); assay type: in vivo; settings: for Number of Jumps / Number of postures: 2 minute test, mean ± sem
Description: Central anxiolytic effects of a test compound can be assessed from the ability of the compound to reduce the characteristic defensive postures of marmosets in response to a threatening approach by a human. The test can also be used to assess the sedative or hypnotic effects of a test compound from its ability to reduce the number of jumps made by the animals. The study was based on the method described in Costall, B. et al (1988) Br. J. Pharmac. 95 p 475P. Laboratory-bred (GSK SpA, Italy) male and female common marmosets over 2 years of age, weighing 300-500 g were used in the study. The animals were caged in couples in a housing room maintained at 25±1° C., 60% humidity, and a 12 hour light/dark cycle (lights on at 0600, with 30 minutes simulated dawn and twilight). Both animals in each pair were involved in the test, which was carried out with the animals in their home cage.
The postures recorded in the test were those described by Costall et al supra; • Genital presenting (“Tail Posture”): the animal's back is turned to the observer with elevation of the tail to expose the genital region; • Scent-marking: the animal scent-marks the cage surfaces using circum-anal and circum-genital scent glands; • Slit-stare: the animal stares at the observer with flattened ear tufts and eyes reduced to “slits” • Arch-piloerection: the animal moves around the cage with arched back and full-body piloerection, failing to make eye contact with the observer
The number of jumps from the back of the cage to the cage front provided an index of locomotor activity, which could be used to assess the potential for a hypnotic effect, sedation, or locomotor stimulation produced by the test compound.

[2] = Blood concentrations in satellite animals of the electroshock seizure study; assay type: in vivo, rat; design: unbound concentration in blood: unit not given here; settings: for unbound concentration in blood: rat
Procedure: Testing involved determining the threshold for tonic hindlimb extensor seizures using a Hugo Sachs Electronik stimulator which delivers a constant current of 0.3 second duration, 50 Hz, sinewave form, fully adjustable between 1 and 300 mA. Stimuli were delivered via corneal electrodes (Stean T O, Atkins A R, Heidbreder C A, Quinn L P, Trail B K, Upton N. (2005) Br J Pharmacol. 144(5):628-35). Seizure threshold was determined using the ‘up and down’ method of Kimball et al. (1957)(Kimball A W, Burnett W T Jr, Doherty D G. (1957) Radiat Res. 7(1):1-12). The first animal tested in each group was stimulated with a current that might be expected to be close to the threshold for induction of a seizure. If a tonic seizure was not induced, then the next animal in the group received a stimulus 5 mA higher. If a tonic seizure was induced, then the next animal received a stimulus 5 mA lower. This is repeated for all animals within the control (vehicle) group. In the case of groups treated with a test compound steps of 5 to 10 mA were used. At the end of the study, blood samples were taken for analysis of the drug concentrations in this compartment (n=4/group).
Blood concentrations of Compound 19 measured in satellite animals 2 hours after dosing were 5.3 and 9.11 μg/mL following the doses of 30 and 60 mg/kg p.o., respectively.

Male CD-1 mice = assay: Psychostimulant (amphetamine)-induced hyperactivity in mice (Example 93); settings: mouse; for Total Distance Travelled (cm): 60 minutes, mean ± sem
[3] = 0.3 mg/kg p.o. 2 hours before test
[4] = 1 mg/kg p.o. 2 hours before test
[5] = 3 mg/kg p.o. 2 hours before test

In the case of CC[C@H]1NC(=O)N(c2ccc(Oc3ccc(C)c(OC)c3)nc2)C1=O [Example 19, (5R)-5-ethyl-3-(6-{[4-methyl-3-(methyloxy)phenyl]oxy}-3-pyridinyl)-2,4-imidazolidinedione], the “reversal of TEA-induced lowering of maximal firing frequency” value ([1]; TEA (0.5 mM) plus compound at 10 μM) was “significantly reversed”, the “reversal of TEA-induced lowering of maximal firing frequency” value ([1]; TEA (0.5 mM) plus compound) was “significantly reversed” and the “Number of Jumps” value (common marmosets; [3]) was 21.3 ± 2.7. For the same molecule, the Number of postures (common marmosets; [3]) was 12.2 ± 1.03, the “effect on the number of jumps” value (common marmosets; 1 mg/kg p.o.) was “significantly reduced” and the “Number of Jumps” value (common marmosets; [4]) was 15.3 ± 2.5. The Number of postures (common marmosets; [4]) was 10.0 ± 1.2, the “effect on the number of jumps” value (common marmosets; 3 mg/kg p.o.) was “significantly reduced” and the “Number of Jumps” value (common marmosets; [5]) was 11.5 ± 1.9. For the same molecule, the Number of postures (common marmosets; [5]) was 9.7 ± 1.1, the “effects on postures” value (common marmosets; any dose (0.3, 1, 3 mg/kg p.o.)) was “without any effects” and the concentration at 2 h ([2]; CD, whole blood, oral, rat satellite animals, 2 hours after 60 mg/kg p.o.) was 9110 ng/mL. The “unbound concentration in blood” value ([2]; 2 hours after 30 mg/kg p.o.) was 1.3, the “unbound concentration in blood” value ([2]; 2 hours after 60 mg/kg p.o.) was 2.21 and the “effect on the increase in total distance travelled produced by amphetamine” value (Male CD-1 mice; 30 mg/kg p.o.) was “significantly reduced”. The “effect on the increase in locomotor activity induced by amphetamine” value (Male CD-1 mice; 60 mg/kg p.o., similar to clozapine 3 mg/kg i.p.) was “further reduced”, the “Total Distance Travelled (cm)” value (Male CD-1 mice; AMPH 2 mg/kg i.p. + compound 30 mg/kg p.o. 30 minutes before) was 5790 ± 1436 cm and the “Total Distance Travelled (cm)” value (Male CD-1 mice; AMPH 2 mg/kg i.p. + compound 60 mg/kg p.o. 30 minutes before) was 1494 ± 378 cm.
